Like-named read-outs stand apart in the source and are kept apart here. Ends that are not written are not given here.
Experiments:
Escherichia coli UB1005 = details: Table 6
Protocol: (§1) Minimal inhibitory concentration (MIC) determination. The MICs of the peptides were measured using a modified broth microdilution method in Mueller Hinton (MH) medium. Wu et al., J. Biol. Chem. 274: 29-35, 1999. Briefly, the peptides were dissolved and stored in glass vials. The assay was performed in sterile 96-well polypropylene microtitre plates were used. Serial dilutions of the peptides to be assayed were performed in 0.01% acetic acid (Fisher) containing 0.2% bovine serum albumin (Boehringer Mannheim GmbH) at 10× the desired final concentration. Ten microlitres of the 10× peptides were added to each well of a 96-well polypropylene plate containing 90 μl of MH media per well. Bacteria were added to the plate from an overnight culture at 2-7×10^5 colony forming units/ml and incubated over night at 37° C. The MIC was taken as the concentration at which no growth was observed.
(§2) Strains. For the killing assay a mini-Tn5-lux mutant in Pseudomonas aeruginosa H103 was used. The strain is called H1001 and contains a fliC::luxCDABE transcriptional fusion resulting in constitutive expression of luciferase. The bacterial strains used for the antimicrobial activity assays included Escherichia coli UB1005 (F-, nalA37, metB1), a wild-type Salmonella enterica ssp. Typhimurium (S. Typhimurium), wild-type Pseudomonas aeruginosa PAO1 strain H103, Enterococcus faecalis ATCC29212, Staphylococcus aureus ATCC25923, and a clinical isolate of Staphylococcus epidermidis obtained from Dr. D. Speert (Department of Medicine, University of British Columbia). Antifungal activity was tested using a lab isolate of Candida albicans obtained from Dr. B. Dill (Department of Microbiology and Immunology, University of British Columbia).
(§3) In addition, the parent peptide Bac2A was included in these studies as a standard. The minimal inhibitory concentrations (MIC) were determined for the important medical pathogens Pseudomonas aeruginosa, Escherichia coli, Salmonella typhimurium, Staphylococcus aureus, Staphylococcus epidermidis, Enterococcus faecaelis, and the yeast Candida albicans in Mueller-Hinton media.

[1] = tested on: Enterococcus faecalis ATCC29212
Protocol: as §1, §2, §3

[2] = tested on: Staphylococcus epidermidis
Protocol: as §1, §2, §3

[3] = tested on: Staphylococcus aureus ATCC25923
Protocol: as §1, §2, §3

[4] = tested on: Pseudomonas aeruginosa PAO1 strain H103
Protocol: as §1, §2, §3

Candida albicans = tested on: Candida albicans
Protocol: as §1, §2, §3

[5] = tested on: Salmonella enterica ssp. Typhimurium
Protocol: as §1, §2, §3

[6] = tested on: Pseudomonas aeruginosa strain H1001 fliC::luxCDABE; assay: Luminescence-based assay for the non-cleaved (bound) peptides on cellulose membranes; format: cell-based; details: for Luminescence at the given time in minutes: 0 / Luminescence at the given time in minutes: 20 / Luminescence at the given time in minutes: 40 / Luminescence at the given time in minutes: 60 / Luminescence at the given time in minutes: 80 / Luminescence at the given time in minutes: 100 / Luminescence at the given time in minutes: 120 / Luminescence at the given time in minutes: 180 / Luminescence at the given time in minutes: 240: cellulose-bound peptide; for Luminescence at the given time in minutes: 0: 0 min; for Luminescence at the given time in minutes: 20: 20 min; for Luminescence at the given time in minutes: 40: 40 min; for Luminescence at the given time in minutes: 60: 60 min; for Luminescence at the given time in minutes: 80: 80 min; for Luminescence at the given time in minutes: 100: 100 min; for Luminescence at the given time in minutes: 120: 120 min; for Luminescence at the given time in minutes: 180: 180 min; for Luminescence at the given time in minutes: 240: 240 min; for Activity Class bound: uncleaved cellulose-bound peptides
How it was run: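 Peptides remained bound to cellulose spots, which were ethanol-washed and equilibrated in 100 mM Tris pH 7.3. Constitutively lux-expressing P. aeruginosa (OD600 0.35 culture diluted 1:25) added in 10 mM Tris-HCl pH 7.3, 20 mM glucose at 37° C. Luminescence (RLU) followed over 14 time points; peptides binned into six activity classes.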

[7] = tested on: Pseudomonas aeruginosa strain H1001; assay: Assay for the cleaved (free, soluble) peptides from cellulose support, luminescence killing assay; format: cell-based; design: key: 1: Peptides showing stronger killing than Bac2A at a 4 to 8-fold higher dilution; Peptides showing stronger killing compared to that of Bac2A at a 4-fold higher dilution; 3: Peptides similar to Bac2A; 4: Peptides similar to Bac2A at the highest concentration but demonstrating weaker killing at a 2-fold dilution; 5: Peptides giving very weak or no killing at a 2-fold dilution; 6: Peptides with weak killing activity at the highest concentration; details: for Soluble Class: Table 5, free peptides; for Activity Class Soluble: free (cleaved) peptides, killing relative to Bac2A
How it was run: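 Cellulose-synthesized peptides (amidated C-terminus, two β-alanines) cleaved by ammonia, released from punched spots 30 min at 37 °C, then serially diluted. P. aeruginosa H1001 (constitutive fliC::luxCDABE) overnight culture diluted 1:500 in LB or 100 mM Tris pH 7.3/20 mM glucose. Killing followed as time-dependent luminescence loss at 37 °C.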

Substance | MIC E. coli (Escherichia coli UB1005) | MIC E. faecalis ([1]; Table 6) | MIC S. epi. ([2]; Table 6) | MIC S. aureus ([3]; Table 6) | MIC P. aerug ([4]; Table 6) | MIC C. albicans (Candida albicans; Table 6) | MIC S. Typhim. ([5]; Table 6) | MIC E. faecalis ([1]; ATCC29212) [µg/mL] | MIC S. epidermidis [2] [µg/mL] | MIC S. aureus ([3]; ATCC25923) [µg/mL] | MIC P. aeruginosa ([4]; PAO1) [µg/mL] | MIC P. aeruginosa Muller Hinton Media ([4]; PAO1) [µg/mL] | MIC P. aeruginosa With 10 μM Mg ([4]; PAO1) [µg/mL] | MIC P. aeruginosa With 2 mM Mg ([4]; PAO1) [µg/mL] | MIC C. albicans (Candida albicans) [µg/mL] | MIC S. typhimurium ([5]; ssp. Typhimurium) [µg/mL] | Luminescence at the given time in minutes: 0 [6] [RLU] | Luminescence at the given time in minutes: 20 [6] [RLU] | Luminescence at the given time in minutes: 40 [6] [RLU] | Luminescence at the given time in minutes: 60 [6] [RLU] | further results
Bac109: peptide of Table 6 (substitution peptides and truncation variants of Bac2A); sequence in Table 1 (RIVVIRVAR) | n.s. | n.s. | n.s. | n.s. | n.s. | n.s. | n.s. |  |  |  |  |  |  |  |  |  |  |  |  |  | 
Bac112: peptide of Table 6 (substitution peptides and truncation variants of Bac2A); sequence in Table 1 (ARIVVIRV) | n.s. | n.s. | n.s. | n.s. | n.s. | n.s. | n.s. |  |  |  |  |  |  |  |  |  |  |  |  |  | 
Bac118: peptide of Table 6 (substitution peptides and truncation variants of Bac2A); sequence in Table 1 (RIVVIRV) | n.s. | n.s. | n.s. | n.s. | n.s. | n.s. | n.s. |  |  |  |  |  |  |  |  |  |  |  |  |  | 
Bac241: peptide of Table 6 (substitution peptides and truncation variants of Bac2A); sequence in Table 1 (RLERIVVIRVAR) | n.s. | n.s. | n.s. | n.s. | n.s. | n.s. | n.s. |  |  |  |  |  |  |  |  |  |  |  |  |  | 
Bac263: peptide of Table 6 (substitution peptides and truncation variants of Bac2A); sequence in Table 1 (RLAGIVVIRVAR) | n.s. | n.s. | n.s. | n.s. | n.s. | n.s. | n.s. |  |  |  |  |  |  |  |  |  |  |  |  |  | 
Bac297: peptide of Table 6 (substitution peptides and truncation variants of Bac2A); sequence in Table 1 (RLARICVIRVAR) | n.s. | n.s. | n.s. | n.s. | n.s. | n.s. | n.s. |  |  |  |  |  |  |  |  |  |  |  |  |  | 
ILRRVRVRAVAI-NH2 (C-terminus assumed) [Bac022] |  |  |  |  |  |  |  | 272 | 136 | 125 | 250 | 250 | 250 | >250 | 272 | 272 | 4336 | 7179 | 5180 | 4505 | Luminescence at the given time in minutes: 80 [6]: 3675 RLU; Luminescence at the given time in minutes: 100 [6]: 3365 RLU; Luminescence at the given time in minutes: 120 [6]: 3044 RLU; Luminescence at the given time in minutes: 180 [6]: 2912 RLU; Luminescence at the given time in minutes: 240 [6]: 2966 RLU; Activity Class bound [6]: 5 (Peptides reducing luminescence (lux) values to between 1500 to 3000 after 240 min.); Soluble Class [7]: 6; Activity Class Soluble [7]: 6
RAVAVIIRLRRV-NH2 (C-terminus assumed) [Bac014] |  |  |  |  |  |  |  | 11 | 8 | 13 | 33 | 33 | 16 | 63 | 8 | 11 | 5233 | 8217 | 7835 | 7867 | Luminescence at the given time in minutes: 80 [6]: 8100 RLU; Luminescence at the given time in minutes: 100 [6]: 8931 RLU; Luminescence at the given time in minutes: 120 [6]: 8956 RLU; Luminescence at the given time in minutes: 180 [6]: 10738 RLU; Luminescence at the given time in minutes: 240 [6]: 12876 RLU; Soluble Class [7]: 1; Activity Class Soluble [7]: 1
RRWRIVVIRVRR-NH2 (C-terminus assumed) [Bac430] |  |  |  |  |  |  |  | 4 |  | 2 |  |  |  |  | 4 |  |  |  |  |  | MIC S. epi. [2]: 0.2 µg/mL; MIC P. aerug ([4]; PAO1): 2 µg/mL; MIC S. Typhim. ([5]; ssp. Typhimurium): 4 µg/mL
RRWVIWRR-NH2 (C-terminus assumed) [Bac437] |  |  |  |  |  |  |  | 32 |  | 16 |  |  |  |  | 63 |  |  |  |  |  | MIC S. epi. [2]: 8 µg/mL; MIC P. aerug ([4]; PAO1): 250 µg/mL; MIC S. Typhim. ([5]; ssp. Typhimurium): 31 µg/mL
RWWKIWVIRWWR-NH2 (C-terminus assumed) [Bac432] |  |  |  |  |  |  |  | 8 |  | 8 |  |  |  |  | 31 |  |  |  |  |  | MIC S. epi. [2]: 1 µg/mL; MIC P. aerug ([4]; PAO1): 31 µg/mL; MIC S. Typhim. ([5]; ssp. Typhimurium): 16 µg/mL
VIRRRRILAAVV-NH2 (C-terminus assumed) [Bac044] |  |  |  |  |  |  |  | > 272 | 113 | 250 | > 250 | >250 | 250 | >250 | 136 | 113 | 5592 | 7069 | 5932 | 5652 | Luminescence at the given time in minutes: 80 [6]: 5206 RLU; Luminescence at the given time in minutes: 100 [6]: 5008 RLU; Luminescence at the given time in minutes: 120 [6]: 4999 RLU; Luminescence at the given time in minutes: 180 [6]: 5060 RLU; Luminescence at the given time in minutes: 240 [6]: 5195 RLU; Activity Class bound [6]: 6 (Peptides having residual luminescence (lux) values greater than 3000 after 240 min.); Soluble Class [7]: 6; Activity Class Soluble [7]: 6
VRLRIRVAVIRA-NH2 (C-terminus assumed) [Bac034] |  |  |  |  |  |  |  | 11 | 4 | 5 | 10 | 10 | 4 | 16 | 8 | 6 | 5305 | 6449 | 4160 | 1454 | Luminescence at the given time in minutes: 80 [6]: 390 RLU; Luminescence at the given time in minutes: 100 [6]: 157 RLU; Luminescence at the given time in minutes: 120 [6]: 64 RLU; Luminescence at the given time in minutes: 180 [6]: 60 RLU; Luminescence at the given time in minutes: 240 [6]: 63 RLU; Activity Class bound [6]: 3 (Peptides similar to Bac2A resulting in lux values of less than 500 after 240 min.); Soluble Class [7]: 1; Activity Class Soluble [7]: 1

Reference: US20080207522A1, “Antimicrobial Peptides” (priority 2004, published 2008)
